Test system: HCV genotype-1a variant with glutamine 30 changed to glutamate in the NS5A protein
Format: cell-based
Conditions: test compound titrated with BMS-790052 fixed at 200 nM; genotype 1a Q30E replicon
Procedure, shortened: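 Synergy was assessed by combining several fixed amounts of an NS5A-targeting compound with a titration of the second compound of interest.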

SMILES | Fold-Synergistic 1a (Q30E) [fold]
CC1(C)C[C@@H](C(=O)N[C@H](c2nc(-c3ccc(-c4ccc(-c5c[nH]c([C@@H](NC(=O)[C@@H]6CC(C)(C)CN6C(=O)OC(C)(C)C)C(C)(C)C)n5)cc4)cc3)c[nH]2)C(C)(C)C)N(C(=O)OC(C)(C)C)C1 [Compound W-93] | >100
CC(C)[C@H](NC(=O)Cc1ccccc1)c1ncc(-c2ccc(-c3ccc(-c4cnc([C@@H](NC(=O)Cc5ccccc5)C(C)C)[nH]4)cc3)cc2)[nH]1 [Compound S-36] | >10
CC(C)OC(=O)N1C2CCC1(C(=O)N[C@H](c1nc(-c3ccc(-c4ccc(-c5c[nH]c([C@@H](NC(=O)C67CCC(CC6)N7C(=O)OC(C)C)C(C)(C)C)n5)cc4)cc3)c[nH]1)C(C)(C)C)CC2.O=C(O)C(F)(F)F.O=C(O)C(F)(F)F [Compound W-118] | >100
CC(C)OC(C)(C)C(=O)N[C@H](c1nc(-c2ccc(-c3ccc(-c4c[nH]c([C@@H](NC(=O)C(C)(C)OC(C)C)C(C)(C)C)n4)cc3)cc2)c[nH]1)C(C)(C)C [Compound Y-1] | >100
CC(C)(C)C(NC(=O)C1COCCN1CC(F)(F)F)c1nc(-c2ccc(-c3ccc(-c4c[nH]c(C(NC(=O)C5COCCN5CC(F)(F)F)C(C)(C)C)n4)cc3)cc2)c[nH]1 [Compound L-68] | >100
CC(C)(C)[C@H](NC(=O)C1CC12CCOCC2)c1ncc(-c2ccc(-c3ccc(-c4cnc([C@@H](NC(=O)C5CC56CCOCC6)C(C)(C)C)[nH]4)cc3)cc2)[nH]1 (single isomer, unassigned) [Compound B70] | >100
CC(C)C(NC(=O)C(=O)N1CCC(C(F)(F)F)CC1)c1nc(-c2ccc(-c3ccc(-c4c[nH]c(C(NC(=O)C(=O)N5CCC(C(F)(F)F)CC5)C(C)C)n4)cc3)cc2)c[nH]1 (stereo not drawn) [Compound W-53] | >100
CC(C)(C)CN[C@H](c1nc(-c2ccc(-c3ccc(-c4c[nH]c([C@@H](NCC(C)(C)C)C(C)(C)C)n4)cc3)cc2)c[nH]1)C(C)(C)C [Compound L-1] | >100
CC(C)[C@H](NC(=O)c1ccc(C(F)(F)F)nc1)c1ncc(-c2ccc(-c3ccc(-c4cnc([C@@H](NC(=O)c5ccc(C(F)(F)F)nc5)C(C)(C)C)[nH]4)cc3)cc2)[nH]1 [Compound Y-47] | >100
CC(C)[C@H](NC(=O)C12CCC(C1)C(C)(C)C2O)c1nc(-c2ccc(-c3ccc(-c4c[nH]c([C@@H](NC(=O)C56CCC(C5)C(C)(C)C6O)C(C)C)n4)cc3)cc2)c[nH]1 (single isomer, unassigned) [Compound Y-114] | >100
CC(C)(C)[C@H](NC(=O)C(=O)N1C(C)(C)CCCC1(C)C)c1nc(-c2ccc(-c3ccc(-c4c[nH]c([C@@H](NC(=O)C(=O)N5C(C)(C)CCCC5(C)C)C(C)(C)C)n4)cc3)cc2)c[nH]1 [Compound W-248] | >100
CC(C)(C)[C@H](NC(=O)C1(COCc2ccccc2)COC1)c1nc(-c2ccc(-c3ccc(-c4c[nH]c([C@@H](NC(=O)C5(COCc6ccccc6)COC5)C(C)(C)C)n4)cc3)cc2)c[nH]1 [Compound L-124] | >100
CC(C)(C)[C@H](NC(=O)C1CCC(F)(F)CC1)c1nc2ccc3cc(-c4ccc5c(ccc6nc([C@@H](NC(=O)C7CCC(F)(F)CC7)C(C)(C)C)[nH]c65)c4)ccc3c2[nH]1 [Compound B25] | >100
CC(C)(C)[C@H](NC(=O)C1CC12CCC2)c1nc(-c2ccc(-c3ccc(-c4cnc([C@@H](NC(=O)C5CC56CCC6)C(C)(C)C)[nH]4)cc3)cc2)c[nH]1 (stereo partly drawn) [Compound B-183] | >100
CC(C)(C(=O)N[C@H](c1nc(-c2ccc(-c3ccc(-c4c[nH]c([C@@H](NC(=O)C(C)(C)C(O)C5CC(F)(F)C5)C(C)(C)C)n4)cc3)cc2)c[nH]1)C(C)(C)C)C(O)C1CC(F)(F)C1 (single isomer, unassigned) [Compound N-144A] | >100
CCCCC(=O)NC1(C(=O)N[C@H](c2nc(-c3ccc(-c4ccc(-c5c[nH]c([C@@H](NC(=O)C6(NC(=O)CCCC)CCCCC6)C(C)(C)C)n5)cc4)cc3)c[nH]2)C(C)(C)C)CCCCC1 [Compound W-253] | >100
CC(C)(C)[C@H](NC(=O)C(=O)N1CCCC(F)(F)C1)c1nc(-c2ccc(-c3ccc(-c4c[nH]c([C@@H](NC(=O)C(=O)N5CCCC(F)(F)C5)C(C)(C)C)n4)cc3)cc2)c[nH]1 [Compound W-46A] | >100
COc1ccccc1C(O)CC(=O)N[C@H](c1nc(-c2ccc(-c3ccc(-c4c[nH]c([C@@H](NC(=O)C5(C(O)c6ccccc6OC)CC5)C(C)(C)C)n4)cc3)cc2)c[nH]1)C(C)(C)C (single isomer, unassigned) [Compound N-135B] | >100
COc1ccccc1C(O)CC(=O)N[C@H](c1nc(-c2ccc(-c3ccc(-c4c[nH]c([C@@H](NC(=O)C5(C(O)c6ccccc6OC)CC5)C(C)(C)C)n4)cc3)cc2)c[nH]1)C(C)(C)C (single isomer, unassigned) [Compound N-135C] | >100
CC(C)CCC(=O)N[C@H](c1ncc(-c2ccc(-c3ccc(-c4cnc([C@@H](NC(=O)CCC(C)C)C(C)C)[nH]4)cc3)cc2)[nH]1)C(C)C [Compound S-32] | >100
O=C(c1cnc(Cl)c(Cl)c1)N1CCC[C@H]1c1ncc(-c2ccc(-c3ccc(C4=CNC([C@@H]5CCCN5C(=O)c5cnc(Cl)c(Cl)c5)N4)cc3)cc2)[nH]1 (stereo partly drawn) [Compound S-133] | <10
CC(C)[C@H](NC(=O)C(=O)C1(O)CCC(F)(F)CC1)c1ncc(-c2ccc(-c3ccc(-c4cnc([C@@H](NC(=O)C(=O)C5(O)CCC(F)(F)CC5)C(C)C)[nH]4)cc3)cc2)[nH]1 [Compound P-125] | >100
CC(C)[C@H](NC(=O)c1ccc(C(F)(F)F)s1)c1ncc(-c2ccc(-c3ccc(-c4cnc([C@@H](NC(=O)c5ccc(C(F)(F)F)s5)C(C)C)[nH]4)cc3)cc2)[nH]1 [Compound Y-21] | >100
CC(O)C1(C(=O)N[C@H](c2nc(-c3ccc(-c4ccc(-c5c[nH]c([C@@H](NC(=O)C6(C(C)O)CCCCC6)C(C)(C)C)n5)cc4)cc3)c[nH]2)C(C)(C)C)CCCCC1 (single isomer, unassigned) [Compound N-152C] | >100
Cc1cccc(C(=O)N[C@H](c2ncc(-c3ccc(-c4ccc(-c5cnc([C@@H](NC(=O)c6cccc(C)c6)C(C)C)[nH]5)cc4)cc3)[nH]2)C(C)C)c1 [Compound S-80] | >100
COCC(NC(=O)C1CCC(F)(F)CC1)c1nc(-c2ccc(-c3ccc(-c4c[nH]c(C(COC)NC(=O)C5CCC(F)(F)CC5)n4)cc3)cc2)c[nH]1 [Compound L-102] | >100
COC(=O)N[C@H](C(=O)N1CCC[C@H]1c1ncc(-c2ccc(-c3ccc(-c4cnc([C@@H](NC(=O)[C@@H]5CCCN5C(=O)OC(C)(C)C)C(C)(C)C)[nH]4)cc3)cc2)[nH]1)C(C)C [Compound B-191] | >10

Reference: patent US20160158200A1, “Combinations of Hepatitis C Virus Inhibitors” (priority 2013, published 2016)
